Consider 82 compounds from PubChem BioAssay AID720495 (Broad Institute, 2013).

Records with an inconclusive call do not appear. The source made the active and inactive calls. How the calls were made is not given here.

Sequence of Protein AF-9 (Homo sapiens) (P42568 whole entry, looked up): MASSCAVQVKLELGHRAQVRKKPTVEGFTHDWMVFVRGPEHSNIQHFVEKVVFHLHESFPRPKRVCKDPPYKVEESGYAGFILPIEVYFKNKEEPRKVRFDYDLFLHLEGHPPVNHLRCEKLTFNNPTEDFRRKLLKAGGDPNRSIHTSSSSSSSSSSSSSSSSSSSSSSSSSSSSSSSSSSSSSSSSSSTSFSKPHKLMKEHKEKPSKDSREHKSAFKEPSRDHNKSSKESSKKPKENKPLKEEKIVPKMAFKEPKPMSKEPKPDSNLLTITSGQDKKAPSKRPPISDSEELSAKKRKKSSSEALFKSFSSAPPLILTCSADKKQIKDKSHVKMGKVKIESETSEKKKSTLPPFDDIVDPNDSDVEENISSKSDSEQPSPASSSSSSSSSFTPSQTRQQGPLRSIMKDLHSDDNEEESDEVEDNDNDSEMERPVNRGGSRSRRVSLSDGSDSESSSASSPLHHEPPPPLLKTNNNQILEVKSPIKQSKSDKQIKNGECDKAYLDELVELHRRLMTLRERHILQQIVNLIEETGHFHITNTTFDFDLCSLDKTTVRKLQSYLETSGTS

One assay concerns the target Protein AF-9 (Homo sapiens) (UniProt P42568). Kind of assay: inhibitors of AF4-AF9 protein interaction, dose response, biochemical, cherry-picked samples, plate reader (AID 720495). Particulars: biochemical protein-protein interaction assay.
With `CN1CCN(C(c2ccc(C(F)(F)F)cc2)c2ccc3cccnc3c2O)CC1` (configuration not stated), the AC50 (usually the concentration at which the activity in the assay is half-maximal) was 0.857 µM.
With `COc1ccc(C#Cc2ccc3c(c2)[C@H]2[C@H](CCN2C(=O)c2ccncc2)[C@@H](CO)N3)cc1`, the AC50 is 10.7 µM.
For the compound `COC(=O)c1ccc2nc(C)cc(Nc3ccc(N(C)C)cc3)c2c1`, the AC50 was 4.41 µM.
On to `CCN(CC)c1ccc(C(=C2C=CC(=[N+](CC)CC)C=C2)c2ccc(N(CC)CC)cc2)cc1`, for which the AC50 was 0.153 µM.
For `Cc1ccn2c(Nc3ccc4c(c3)OCO4)c(-c3ccccn3)nc2c1`, the AC50 is 3.55 µM.
With `CC(=O)c1cccc2c(O)c(C3=Nc4ccccc4C3=O)[nH]c12`, the half-maximal activity concentration (AC50) is 3.11 µM.
`CCCC(=O)NC(c1ccc(N(C)C)cc1)c1ccc2cccnc2c1O` (configuration not stated): the AC50 was 1.04 µM.
On the same count and under the same terms, to `CC(C)(c1ccccc1)c1ccc(OCC(O)CNC2CCN(Cc3ccccc3)CC2)cc1` (configuration not stated) belongs 0.841 µM.
Consider `COc1cc(OC)c2c(-c3ccccc3)cc(=O)oc2c1C(CCN1CCCCC1)c1ccc2c(c1)OCO2` (configuration not stated), for which the AC50 is 1.08 µM.
As for `O=C(COc1cc(F)ccc1[N+](=O)[O-])Nc1ccc(N2CCCCC2)cc1`, the AC50 is 9.04 µM.
As to `CC(C)Nc1ccc(Nc2ccccc2)cc1`, the AC50 is 10.9 µM.
As to `Cc1[nH]c2ccc(O)cc2c1CCN`, the AC50 is 5.35 µM.
On to `Cc1cc(N=Nc2ccc3ccccc3c2)ccc1O`, for which the AC50 is 9.43 µM.
Take `O=C(/C(=N/N=C/c1ccc(O)c(O)c1)c1ccccc1)c1ccccc1`: the AC50 was 1.62 µM.
In the case of `COc1ccc(NCc2ccc(OC)c(Cn3ccnc3)c2)c(OC)c1`, the AC50 is 11.2 µM.
For the compound `CSC(=S)N/N=C/c1c[nH]c2ccccc12`, the AC50 was 11.5 µM.
On to `CCOc1ccc(NCc2cccn2-c2nnc(N3CCC(C(=O)NCCCN4C(C)CCCC4C)CC3)s2)cc1` (configuration not stated), for which the AC50 is 5.36 µM.
Consider `N#C/C(C(N)=O)=c1/ccc2c(c1)N1C3=C(CCCC3)CC3CCCCC31N=2` (configuration not stated), for which the AC50 was 0.767 µM.
As to `COc1cc(N(C)C)ccc1C=c1c2ccccc2n2c1cc(-c1ccccc1)[n+]2C`, the AC50 is 1.88 µM.
Still for that read-out and setting: to `CN1\C(=C/C=C/C=C/C=[N+](C)C)C(C)(C)c2ccccc21` belongs 9.97 µM; to `CCOc1ccc(NCc2cccn2-c2nnc(N3CCC(C(=O)NCCCN4CCCCC4)CC3)s2)cc1`, 5.94 µM; to `CN(C)CC/C=C1\c2ccc(F)cc2Sc2cc(F)c(Cl)cc21`, 9.52 µM.
Same read-out and setting: to `O=C1c2ccccc2-c2onc3ccc(N4CCCC4)c1c23` belongs 5.49 µM; to `COc1ccc(C(CCNCc2ccc(N(C)C)cc2)c2ccccc2OC)cc1` (configuration not stated), 6.09 µM; to `C[C@@H]1CCCCO[C@H](CN(C)Cc2ccc(Cl)c(Cl)c2)[C@@H](C)CN([C@H](C)CO)C(=O)c2cc(N(C)C)ccc2O1`, 10.1 µM.
On to `COC1=C(Nc2ccc(O)cc2)C(=O)c2ccccc2C1=O`, for which the AC50 is 9.8 µM.
In the case of `CCc1cccc(NC(=O)CCCCCC2NC(=O)NC2C)c1` (configuration not stated), the concentration at half-maximal activity (AC50) is below 0.08 µM.
Take `COc1cccc2sc(N(CCCN(C)C)C(=O)c3ccc(S(=O)(=O)N4CCCc5ccccc54)cc3)nc12`: the AC50 was 4.68 µM.
`Cc1ncc(CO)c(/C=N/NC(=S)Nc2ccc(Cl)c(Cl)c2)c1O`: the AC50 was 5.79 µM.
Regarding `Oc1c(C(c2ccccc2Cl)N2CCCC2)ccc2cccnc12` (configuration not stated), the AC50 is 0.995 µM.
With `CCN(CCCNc1cc2c(c(N)c1S(=O)(=O)O)C(=O)c1ccccc1C2=O)c1ccccc1`, the AC50 was 3.65 µM.
`COc1cc2c(c(OC)c1OC)-c1ccc(O)c(=O)cc1[C@@H](N)CC2`: the AC50 is 2.3 µM.
The same measure, in the same setting: to `CCN1/C(=C/C(C)=C/c2sc3ccccc3[n+]2CC)Sc2ccccc21` belongs 5.6 µM; to `O=C(O)CCCNc1cc(N2CCN(C(=O)c3ccco3)CC2)c2noc3c2c1C(=O)c1ccccc1-3`, 10.6 µM.
Take `Oc1c(C(Nc2cccc(C(F)(F)F)c2)c2ccncc2)ccc2cccnc12` (configuration not stated): the AC50 is 0.515 µM.
For the compound `C#CCOCCOCCOCCNc1nc(N2CCN(C(=O)[C@H](CCCCN)n3cc(CN)nn3)CC2)nc(N2CCN(C(=O)[C@H](CCCN=C(N)N)n3cc(C(N)[C@H](C)CC)nn3)CC2)n1` (some centres not stated), the AC50 is 2.81 µM.
On to `CN1CCN(C(c2ccccn2)c2cc(Cl)c3cccnc3c2O)CC1` (configuration not stated), for which the AC50 was 2.05 µM.
Consider `Cn1c(=O)cc2c3c(c(N4CCCCC4)ccc31)C(=O)c1ccccc1-2`, for which the AC50 was 8.32 µM.
Regarding `CN(C(=O)c1ccc(NC(=O)Cc2ccc(NC(=O)C3CCN(C(=O)c4ccccc4)CC3)cc2)cc1)C1CC1`, the AC50 is 0.233 µM.
As for `CN(C)c1ccc(C=c2c3ccccc3n3c2cc(-c2ccccc2)[n+]3C)cc1`, the AC50 is 2.43 µM.
`CCN(CC)CCOc1ccc2c(c1)C(=NNC(=O)c1ccccn1)c1cc(OCCN(CC)CC)ccc1-2`: the AC50 was 3.66 µM.
For `CCN1CCN(c2ccc(N)cc2)CC1`, the AC50 is 1.54 µM.
As for `CN(C)c1cc2c3ccccc3n(C)c2cc1N`, the AC50 was 1.08 µM.
Consider `CCc1nc2ccc(C(=O)NC3CCN(Cc4ccccc4)CC3)cn2c1N(C)Cc1ccc(N(C)C)cc1`, for which the AC50 is 5.52 µM.
On to `c1ccc2c(NCCc3c[nH]c4ccccc34)c3ccccc3nc2c1`, for which the AC50 was 5.9 µM.

The same assay, now with this note: biochemical protein-protein interaction assay, at 10 µM (top of the series).
As for `COc1ccccc1Nc1c2c(nc3ccc(N)cc13)CCCC2`, the “activity change, negative = inhibition” value was “inactive”.
Turning to `COc1ccc(CN2CCC(N(CCc3ccccc3)Cc3ccccc3)CC2)c(OC)c1`, the “activity change, negative = inhibition” value was “inactive”.
As to `C[C@H](CO)N1C[C@H](C)[C@H](CN(C)Cc2ccc(C(F)(F)F)cc2)OCCCC[C@H](C)Oc2ccc(N(C)C)cc2C1=O`, the “activity change, negative = inhibition” value was “inactive”.
As to `Cc1cc2c(OCC(O)CNC3CCCCC3)cccc2[nH]1` (configuration not stated), the “activity change, negative = inhibition” value was “inactive”.
On the same count and under the same terms, to `CC1=NN(c2ccccc2)C(=O)/C1=C/C=C/c1ccc(N(C)C)cc1` belongs “inactive”; to `CN=c1scc(-c2cccs2)n1/N=C/c1ccccc1O`, “inactive”.
On the same count and under the same terms, to `COc1ccc(OC)c(C2=NOC(C(=O)Nc3c(C)n(C)n(-c4ccccc4)c3=O)C2)c1` (configuration not stated) belongs “inactive”; to `CC1C/C(=C/c2cccs2)C(=O)/C(=C/c2cccs2)C1` (configuration not stated), “inactive”; to `O=C(N/N=C/c1cc(Cl)cc([N+](=O)[O-])c1O)c1cccc(S(=O)(=O)N2CCOCC2)c1`, “inactive”.
Same read-out and setting: to `CCOc1ccc(OCCSc2ccc(S(=O)(=O)N3CCN(C)CC3)cn2)cc1` belongs “inactive”; to `Cc1ccc(NC(=S)N/N=C/c2ccc([N+](=O)[O-])s2)cc1`, “inactive”; to `CCN1C(=O)/C(=C\C(=O)c2cccs2)c2cc(Br)ccc21`, “inactive”.
In the case of `CCOC(=O)/C(C#N)=C/c1c(N2CCN(Cc3ccc4c(c3)OCO4)CC2)nc2c(C)cccn2c1=O`, the “activity change, negative = inhibition” value was “inactive”.
For `COc1ccc(N2CCC(CNC(=S)Nc3ccc(C)cc3C)C2)cc1` (configuration not stated), the “activity change, negative = inhibition” value is “inactive”.
With `Cc1ccc(S(=O)(=O)NC(=O)Nc2ccc(N(C)C)cc2)cc1`, the “activity change, negative = inhibition” value was “inactive”.
Regarding `NC(=O)C1CCN(C2=C(NS(=O)(=O)c3ccc(Br)cc3)C(=O)c3ccccc3C2=O)CC1`, the “activity change, negative = inhibition” value was “inactive”.
Regarding `S=C(NN=C(c1ccccc1)c1ccccn1)N(Cc1ccccn1)Cc1ccccn1`, the “activity change, negative = inhibition” value was “inactive”.
The same measure, in the same setting: to `Cn1ccc2c(N3CCCCCC3)cc3c(c21)C1CCC3C1` (configuration not stated) belongs “inactive”; to `CCc1ccc(-c2nc(CSCC(=O)N3CCN(c4ncccn4)CC3)c(C)o2)cc1`, “inactive”; to `O=C(N/N=C/c1sc(N2CCCCC2)nc1-c1cccs1)C1CC1`, “inactive”.
Regarding `CCN1CCN(Cc2ccc(NC(=O)c3cc(NC(=O)c4nccnc4N)cc(OC)c3)cc2C(F)(F)F)CC1`, the “activity change, negative = inhibition” value was “inactive”.
Consider `C[n+]1c2n(c3ccccc31)N=C(c1cc(C(C)(C)C)c(O)c(C(C)(C)C)c1)CS2`, for which the “activity change, negative = inhibition” value was “inactive”.
With `CCC(=O)N(C)C[C@H]1Oc2cc(C#Cc3ccncc3)ccc2S(=O)(=O)N([C@@H](C)CO)C[C@@H]1C`, the “activity change, negative = inhibition” value is “inactive”.
`CC(C)N1CCN(c2ccc(OC[C@H]3CO[C@](Cn4cncn4)(c4ccc(Cl)cc4Cl)O3)cc2)CC1`: the “activity change, negative = inhibition” value was “inactive”.
Turning to `CCOc1ccc(/C=N/Nc2cc(N3CCOCC3)ncn2)c(O)c1`, the “activity change, negative = inhibition” value is “inactive”.
Consider `COc1ccccc1N1CCN(/N=C/C=C\c2ccccc2[N+](=O)[O-])CC1`, for which the “activity change, negative = inhibition” value is “inactive”.
Consider `C#CCOCCOCCOCCNc1nc(N2CCN(C(=O)C([C@@H](C)O)n3cc([C@@H](N)CCCCN)nn3)CC2)nc(N2CCN(C(=O)C([C@@H](C)O)n3cc([C@@H](N)CCCCN)nn3)CC2)n1` (some centres not stated), for which the “activity change, negative = inhibition” value is “inactive”.
Same read-out and setting: to `c1ccc(C2=Nc3c(ccc4ccccc34)C(c3ccncc3)=NN2)cc1` belongs “inactive”; to `C[C@@H]1CN([C@H](C)CO)C(=O)c2c(c3ccccc3n2C)-c2ccccc2CO[C@@H]1CN(C)Cc1ccc2c(c1)OCCN2C`, “inactive”.
Turning to `CNC(=S)N1N=C(c2ccc(Br)cc2)CC1c1ccc(N(C)C)cc1` (configuration not stated), the “activity change, negative = inhibition” value is “inactive”.
On to `Cc1ccc2nc(-c3ccccn3)c(NC3CCCC3)n2c1`, for which the “activity change, negative = inhibition” value is “inactive”.
Consider `COc1ccc2ccccc2c1-c1sc(Nc2ccccc2)n[n+]1-c1ccc(F)cc1`, for which the “activity change, negative = inhibition” value was “inactive”.
`O=C(Nc1cccc(CNCCc2c[nH]c3ccccc23)c1)c1ccccc1Cl`: the “activity change, negative = inhibition” value was “inactive”.
Regarding `C#CCOCCOCCOCCNc1nc(N2CCN(C(=O)[C@H](CCCCN)n3cc([C@@H](N)[C@H](C)CC)nn3)CC2)nc(N2CCN(C(=O)[C@H](CCC(=O)O)n3cc([C@@H](N)CCCCN)nn3)CC2)n1`, the “activity change, negative = inhibition” value is “inactive”.
For the compound `Fc1ccc([C@@H]2CCNC[C@H]2COc2ccc3c(c2)OCO3)cc1`, the “activity change, negative = inhibition” value is “inactive”.
Same read-out and setting: to `CC(=Nc1ccc(C)cc1C)c1sc2ccccc2c1O` belongs “inactive”; to `CC1Cc2ccccc2N1C(=O)c1ccc(N2CCCC2)c([N+](=O)[O-])c1` (configuration not stated), “inactive”.
